Test results published in patent US12180192B2, “Modulators of THR-β and methods of use thereof” (ALIGOS THERAPEUTICS, INC., priority 2019, dated 2024).

Legend:
THR alpha = molecular target: T1, THR alpha (Homo sapiens, UniProt P10827); test: HEK293T THR alpha/RXR luciferase reporter assay (Assay 2); type: cell-based; conditions: Assay 2; for Emax: HEK-293T, Table 5, THRα, read-out: Activity category Assay 2 THRα (Emax); for EC50: Table 4, THR-alpha, read-out: Activity category Assay 2 (EC50, THR-alpha agonist activity)
T1 construct: expressed in transfected cells; host or cells: HEK293T (ATCC CRL-3216)
T1 sequence (P10827 1-410 isoform P10827-2): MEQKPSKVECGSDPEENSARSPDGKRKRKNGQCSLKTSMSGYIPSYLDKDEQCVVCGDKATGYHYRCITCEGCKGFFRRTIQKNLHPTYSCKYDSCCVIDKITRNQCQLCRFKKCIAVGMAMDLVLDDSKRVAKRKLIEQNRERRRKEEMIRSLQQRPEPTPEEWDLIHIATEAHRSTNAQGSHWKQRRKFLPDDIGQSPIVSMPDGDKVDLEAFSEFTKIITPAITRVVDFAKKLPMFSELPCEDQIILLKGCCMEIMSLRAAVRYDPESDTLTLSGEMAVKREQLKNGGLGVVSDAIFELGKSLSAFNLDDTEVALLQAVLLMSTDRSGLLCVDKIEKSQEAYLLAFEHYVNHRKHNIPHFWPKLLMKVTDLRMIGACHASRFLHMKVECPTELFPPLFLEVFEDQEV
T1 sequence (P19793 1-462 partner): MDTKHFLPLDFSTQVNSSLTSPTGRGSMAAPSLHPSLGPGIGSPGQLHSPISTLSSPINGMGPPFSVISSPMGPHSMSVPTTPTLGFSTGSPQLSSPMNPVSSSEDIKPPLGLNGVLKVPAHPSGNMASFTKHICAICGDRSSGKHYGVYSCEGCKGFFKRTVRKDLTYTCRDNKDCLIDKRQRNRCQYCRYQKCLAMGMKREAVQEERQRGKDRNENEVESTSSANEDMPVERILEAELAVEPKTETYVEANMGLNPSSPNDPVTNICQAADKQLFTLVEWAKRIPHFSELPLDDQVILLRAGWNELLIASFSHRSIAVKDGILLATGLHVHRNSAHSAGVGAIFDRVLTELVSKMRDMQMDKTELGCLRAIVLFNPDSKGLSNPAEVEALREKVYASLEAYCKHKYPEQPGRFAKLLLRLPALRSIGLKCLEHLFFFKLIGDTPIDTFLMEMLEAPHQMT
Procedure, shortened: (§1)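 Compounds tested as ten-point five-fold dilution series for 18-24 h on transiently transfected HEK293T cells carrying TRE-driven luciferase plus RXR and either THR alpha or beta expression plasmids. Read-out by One-Glo luminescence, expressed as percent agonism relative to negative and positive controls.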

[1] = molecular target: T2, human thyroid receptor alpha ligand-binding domain (LBD) (Homo sapiens, UniProt P10827); test: TR-FRET thyroid receptor alpha coactivator assay (THR biochemical assay, Assay 1); conditions: for EC50: Table 4, THR-alpha, read-out: Activity category Assay 1 (EC50, THR-alpha agonist activity); for Emax: Table 5, THRα, read-out: Activity category Assay 1 THRα (Emax)
T2 construct: purchased Invitrogen
Procedure, shortened: (§2)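 Agonist-driven coactivator recruitment measured by TR-FRET: terbium anti-GST antibody (2 nM) bound to GST-LBD of TRβ or TRα (1 nM final, stated for β), with fluorescein SRC2-2 peptide at 200 nM. Compounds at 1% DMSO. Read after 1 h, room temperature, protected from light.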

[2] = molecular target: T3, human thyroid receptor beta ligand-binding domain (LBD) (Homo sapiens, UniProt P10828); test: TR-FRET thyroid receptor beta coactivator assay (THR biochemical assay, Assay 1); conditions: for EC50: THR-beta, TR-FRET coactivator assay, read-out: Activity category Assay 1 (EC50, THR-beta agonist); for Emax: Table 5, Assay 1, THRβ, read-out: Activity category Assay 1 THRβ (Emax)
T3 construct: purchased Invitrogen
T3 sequence (P10828 217-461 limits assumed): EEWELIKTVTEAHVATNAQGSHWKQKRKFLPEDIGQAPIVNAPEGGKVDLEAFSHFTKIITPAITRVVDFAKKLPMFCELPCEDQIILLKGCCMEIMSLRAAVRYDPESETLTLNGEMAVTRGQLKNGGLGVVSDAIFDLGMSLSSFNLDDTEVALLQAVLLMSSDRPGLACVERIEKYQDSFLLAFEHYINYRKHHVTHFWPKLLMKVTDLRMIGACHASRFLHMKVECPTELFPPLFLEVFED
Procedure, shortened: as §2

THR beta = molecular target: T4, THR beta (Homo sapiens, UniProt P10828); test: HEK293T THR beta/RXR luciferase reporter assay (Assay 2); type: cell-based; conditions: for Emax: HEK-293T, Table 5, Assay 2, THRβ, read-out: Activity category Assay 2 THRβ (Emax); for EC50: THR-beta, HEK293T reporter assay, read-out: Activity category Assay 2 (EC50, THR-beta agonist)
T4 construct: expressed in transfected cells; host or cells: HEK293T (ATCC CRL-3216)
T4 sequence (P10828 1-461): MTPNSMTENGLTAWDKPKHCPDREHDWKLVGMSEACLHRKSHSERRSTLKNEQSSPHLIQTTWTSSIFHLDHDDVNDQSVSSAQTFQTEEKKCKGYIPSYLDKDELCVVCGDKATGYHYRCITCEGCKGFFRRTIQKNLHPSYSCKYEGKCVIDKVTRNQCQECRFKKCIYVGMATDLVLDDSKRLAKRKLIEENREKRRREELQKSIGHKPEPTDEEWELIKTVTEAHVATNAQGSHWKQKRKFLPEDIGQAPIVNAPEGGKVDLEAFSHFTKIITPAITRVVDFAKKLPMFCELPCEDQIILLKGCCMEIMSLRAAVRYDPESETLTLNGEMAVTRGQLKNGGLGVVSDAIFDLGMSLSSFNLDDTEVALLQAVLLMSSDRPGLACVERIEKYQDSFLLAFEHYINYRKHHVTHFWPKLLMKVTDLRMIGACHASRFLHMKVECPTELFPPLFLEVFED
T4 sequence (P19793 1-462 partner): T1 sequence (P19793 1-462 partner)
Procedure, shortened: as §1

Compound | Emax (THR alpha) | EC50 (THR alpha) | EC50 [1] | Emax [1] | EC50 [2] | Emax [2] | Emax (THR beta) | EC50 (THR beta)
N#CC1CCC1c1cc(Oc2c(Cl)cc(-n3nc(N)c(=O)[nH]c3=O)cc2Cl)n[nH]c1=O (centres unmarked) [Compound 104] | < 50% | > 10000 nM | 1000 to 25000 nM | 50 to 75% | 250 to 1000 nM | < 50% | 50 to 75% | 1000 to 10000 nM
Nc1nn(-c2cc(Cl)c(Oc3cc([C@H]4C[C@H](O)C4)c(=O)[nH]n3)c(Cl)c2)c(=O)[nH]c1=O [Compound 88-A, 6-Amino-2-[3,5-dichloro-4-([6-oxo-5-[(1r,3r)-3-hydroxycyclobutyl]-1H-pyridazin-3-yl]oxy)phenyl]-4H-1,2,4-triazine-3,5-dione] | > 75% | > 10000 nM | > 25000 nM | < 50% | 1000 to 25000 nM | < 50% | < 50% | > 10000 nM
Cc1cc(-n2nc(C#N)c(=O)[nH]c2=O)cc(C)c1Oc1ccc2[nH]cc(C(C)C)c2c1 [Compound 2, 2-[4-[(3-isopropyl-1H-indol-5-yl)oxy]-3,5-dimethyl-phenyl]-3,5-dioxo-4H-1,2,4-triazine-6-carbonitrile] | > 75% | 250 to 1000 nM | < 50 nM | < 50% | < 50 nM | > 75% | > 75% | 50 to 250 nM
CC(C)c1c[nH]c2nnc(Oc3c(Cl)cc(-n4nc(N)c(=O)[nH]c4=O)cc3Cl)cc12 [Compound 53, 6-amino-2-[3,5-dichloro-4-([5-isopropyl-7H-pyrrolo[2,3-c]pyridazin-3-yl]oxy)phenyl]-4H-1,2,4-triazine-3,5-dione] | > 75% | 1000 to 10000 nM | 250 to 1000 nM | < 50% | < 50 nM | 50 to 75% | > 75% | 250 to 1000 nM
Cc1cc(-c2cc(Oc3c(Cl)cc(-n4nc(N)c(=O)[nH]c4=O)cc3Cl)n[nH]c2=O)ccc1Cl [Compound 116] | < 50% | > 10000 nM | > 25000 nM | < 50% | 50 to 250 nM | < 50% | < 50% | 50 to 250 nM
Nc1nn(-c2cc(Cl)c(Oc3n[nH]c(=O)cc3-c3cc4ccccc4cn3)c(Cl)c2)c(=O)[nH]c1=O [Compound 134] | < 50% | > 10000 nM | 250 to 1000 nM | < 50% | < 50 nM | < 50% | 50 to 75% | 250 to 1000 nM
CCCc1c[nH]c2ccc(Oc3c(Cl)cc(-n4nc(C#N)c(=O)[nH]c4=O)cc3Cl)nc12 [Compound 19] | < 50% | 1000 to 10000 nM | > 25000 nM | < 50% | < 50 nM | < 50% | > 75% | 1000 to 10000 nM
Cc1c(-n2nc(N)c(=O)[nH]c2=O)cc(Cl)c(Oc2cc(C(C)C)c(=O)[nH]n2)c1Cl [Compound 35, 6-amino-2-[3,5-dichloro-4-[(5-isopropyl-6-oxo-1H-pyridazin-3-yl)oxy]-2-methyl-phenyl]-4H-1,2,4-triazine-3,5-dione] | < 50% | 1000 to 10000 nM | 1000 to 25000 nM | 50 to 75% | 1000 to 25000 nM | 50 to 75% | 50 to 75% | 1000 to 10000 nM
CC(C)c1n[nH]c2nnc(Oc3c(Cl)cc(-n4nc(N)c(=O)[nH]c4=O)cc3Cl)cc12 [Compound 75, 6-amino-2-(3,5-dichloro-4-((3-isopropyl-1H-pyrazolo[3,4-c]pyridazin-5-yl)oxy)phenyl)-1,2,4-triazine-3,5 (2H,4H)-dione] | > 75% | 250 to 1000 nM | 50 to 250 nM | > 75% | < 50 nM | > 75% | > 75% | < 50 nM

Next, values leading:

Emax (THR alpha) | EC50 (THR alpha) | EC50 [1] | Emax [1] | EC50 [2] | Emax [2] | Emax (THR beta) | EC50 (THR beta) | Compound
< 50% | 250 to 1000 nM | 250 to 1000 nM | < 50% | < 50 nM | < 50% | 50 to 75% | 50 to 250 nM | Cc1cccc(-c2cc(Oc3c(Cl)cc(-n4nc(N)c(=O)[nH]c4=O)cc3Cl)n[nH]c2=O)c1F [Compound 64, 6-amino-2-(3,5-dichloro-4-[[5-(2-fluoro-3-methylphenyl)-6-oxo-1H-pyridazin-3-yl]oxy]phenyl)-4H-1,2,4-triazine-3,5-dione]
50 to 75% | 50 to 250 nM | 50 to 250 nM | < 50% | < 50 nM | 50 to 75% | 50 to 75% | < 50 nM | Nc1nn(-c2cc(Cl)c(Oc3cc(-c4cccc(OC(F)F)c4)c(=O)[nH]n3)c(Cl)c2)c(=O)[nH]c1=O [Compound 118]
50 to 75% | < 50 nM | < 50 nM | 50 to 75% | < 50 nM | < 50% | 50 to 75% | < 50 nM | Cc1cc(-n2ncc(=O)[nH]c2=O)cc(C)c1Cc1ccc2c(c1)C1(CC1)C(=O)N2 [Compound 152, 2-(3,5-dimethyl-4-((2′-oxospiro[cyclopropane-1,3′-indolin]-5′-yl)methyl)phenyl)-1,2,4-triazine-3,5(2H,4H)-dione]
50 to 75% | 50 to 250 nM | 250 to 1000 nM | < 50% | 50 to 250 nM | < 50% | 50 to 75% | 50 to 250 nM | Nc1nn(-c2cc(Cl)c(Oc3cc(-c4cccc(F)c4)c(=O)[nH]n3)c(Cl)c2)c(=O)[nH]c1=O [Compound 69, 6-Amino-2-(3,5-dichloro-4-((5-(3-fluorophenyl)-6-oxo-1,6-dihydropyridazin-3-yl)oxy)phenyl)-1,2,4-triazine-3,5(2H,4H)-dione]
